Data: article PMC10687071 (The Journal of Biological Chemistry, 2023)
Positions count from the first letter of the chain named.

Columns and labels:
[1] = target: T1, D39G/R84G mutant EAG1 channels (Mus musculus, UniProt Q60603, D39G/R84G); experiment: TEVC recording, imipramine inhibition, D39G/R84G double mutant; format: cell-based; settings: D39G/R84G mutant EAG1 channel, +50 mV
T1 construct: expressed in transfected cells; host or cells: Xenopus laevis oocytes injected with cRNA
T1 sequence (Q60603 1-989 D39G/R84G): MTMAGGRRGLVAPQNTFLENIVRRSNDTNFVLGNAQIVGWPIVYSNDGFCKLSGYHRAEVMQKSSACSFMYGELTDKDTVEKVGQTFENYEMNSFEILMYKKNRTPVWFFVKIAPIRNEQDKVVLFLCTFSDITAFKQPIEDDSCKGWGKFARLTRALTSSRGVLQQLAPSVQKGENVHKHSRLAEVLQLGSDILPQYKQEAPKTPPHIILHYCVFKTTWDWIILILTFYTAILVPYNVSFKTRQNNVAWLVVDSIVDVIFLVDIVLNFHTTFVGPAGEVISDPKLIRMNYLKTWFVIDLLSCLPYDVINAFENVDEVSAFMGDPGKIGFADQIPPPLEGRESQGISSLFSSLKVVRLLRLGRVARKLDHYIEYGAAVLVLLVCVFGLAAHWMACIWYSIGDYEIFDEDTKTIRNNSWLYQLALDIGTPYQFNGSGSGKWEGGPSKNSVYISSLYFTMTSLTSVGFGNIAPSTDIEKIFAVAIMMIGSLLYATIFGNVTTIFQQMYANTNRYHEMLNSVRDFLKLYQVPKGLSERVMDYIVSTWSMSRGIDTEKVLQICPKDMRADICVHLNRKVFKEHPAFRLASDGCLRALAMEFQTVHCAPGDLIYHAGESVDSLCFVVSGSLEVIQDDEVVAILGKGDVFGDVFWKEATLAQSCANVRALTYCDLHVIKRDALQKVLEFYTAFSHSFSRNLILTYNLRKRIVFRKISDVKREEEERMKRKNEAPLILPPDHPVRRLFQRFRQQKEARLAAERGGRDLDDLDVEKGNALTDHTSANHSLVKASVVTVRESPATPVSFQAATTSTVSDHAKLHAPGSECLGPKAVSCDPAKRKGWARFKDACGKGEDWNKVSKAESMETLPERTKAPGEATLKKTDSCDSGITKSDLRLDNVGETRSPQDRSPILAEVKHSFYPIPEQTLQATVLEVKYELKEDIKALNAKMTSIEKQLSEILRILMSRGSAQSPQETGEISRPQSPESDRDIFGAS
Description: (§1) The cDNA encoding wild-type (WT) mouse EAG1 channels in pGH19 vector was kindly provided by G. Robertson (University of Wisconsin-Madison, Madison, WI). The mutant ΔPAS EAG1 channel in pGH19 with the deletion of the PAS domain residues 2 to 130 was generated by Bio Basic Inc and verified by DNA sequencing (Genewiz). Mutant EAG1 channels with single amino acid substitutions were generated by Genewiz and verified by DNA sequencing. cRNA was transcribed using the T7 mMessage mMachine kit (Thermo Fisher Scientific). Defolliculated Xenopus laevis oocytes were purchased from Ecocyte Bioscience or Xenopus1 and injected with the cRNA using a Nanoinject II oocyte injector (Drummond).
(§2) For EAG1 current recordings, oocytes were placed into a handmade chamber containing a bath solution for the current recording. The currents were recorded using a TEVC technique with OC-725C amplifier (Warner Instruments) and pClamp11 software (Molecular Devices). The signals were digitized using Digidata 1550 (Molecular Devices). Patch pipettes were pulled from borosilicate glass and had resistances of 0.7 to 1.5 MΩ. The recording (bath) solution contained 96 mM NaCl, 4 mM KCl, 0.1 mM CaCl2, 1.8 mM MgCl2, and 5 mM HEPES, pH 7.5. The pipette solution contained 3 M KCl. […]

WT EAG1 channels = target: T2, WT EAG1 channels (Mus musculus, UniProt Q60603); experiment: TEVC recording of EAG1 currents in Xenopus oocytes, imipramine inhibition, WT channel; format: cell-based; settings: IC50 for imipramine inhibition at +50 mV
T2 construct: expressed in transfected cells; host or cells: Xenopus laevis oocytes injected with cRNA
T2 sequence (Q60603 1-989): T1 sequence (Q60603 1-989 D39G/R84G) with G39D, G84R
Description: as §1, §2

CN(C)CCCN1c2ccccc2CCc2ccccc21 [imipramine]
IC50 [1]: 142 ± 28.5 µM | IC50 (WT EAG1 channels): 58.1 ± 9.7 µM
